US8153631B2, “Triazole compounds and uses related thereto” (Amgen Inc., priority 2003, dated 2012)
Where a name gives a salt, the structure may show the parent alone.

target: T1, human HSD1 (recombinant HSD1) (Homo sapiens, UniProt P28845); experiment: In vitro HSD1 activity inhibitory action, SPA of cortisone to cortisol conversion; assay type: biochemical; settings: recombinant human HSD1 0.1 μg/ml, 500 μM NADPH, 16 nM 3H cortisone, room temperature 90 min, read-out: hHSD1 IC50
T1 construct: made in house
Experimental: In Vitro HSD1 (Hydroxysteroid Dehydrogenase 1) Activity Inhibitory Action
The HSD1 inhibitory activity was examined by quantitative determination by an SPA (scintillation proximity assay) system of the suppressive action on the conversion from cortisone to cortisol using human HSD1 (hereinafter recombinant HSD1) expressed using a baculo-virus system as an enzyme source. For the reaction, a reagent was added to a 96 well plate (96 well Opti-plates™-96 (Packard)) to the following final concentration and a volume of 100 μl was reacted at room temperature for 90 min. The reaction solution used was 0.1 μg/ml recombinant HSD1, 500 μM NADPH, 16 nM ^3H cortisone (Amersham Biosciences, 1.78 Tbq/mol) dissolved in 0.1% BSA (Sigma)-containing PBS and the test drug was 2 μl of a compound solution (dissolved in DMSO). After 90 min, the reaction was stopped by adding PBS (40 μl, containing 0.1% BSA (Sigma)) containing 0.08 μg of anti-cortisol mouse monoclonal antibody (East Coast Biologics), 365 μg SPA PVT mouse antibody-binding beads (Amersham Biosciences) and 175 μM carbenoxolone (Sigma) to the reaction solution. After the completion of the reaction, the plate was incubated overnight at room temperature and the radioactivity was measured by Topcount (Packard). For control, the value (0% inhibition) of the well containing 2 μl of DMSO instead of the test drug was used, and for positive control, the value (100% inhibition) of the well containing carbenoxolone instead of the test drug at the final concentration of 50 μM was used. The inhibition (%) of the test drug was calculated by ((value of control−value of test drug)/(value of control−value of positive control))×100 (%). The IC50 value was analyzed using a computer-based curve fitting soft.

T1 sequence (P28845 whole entry): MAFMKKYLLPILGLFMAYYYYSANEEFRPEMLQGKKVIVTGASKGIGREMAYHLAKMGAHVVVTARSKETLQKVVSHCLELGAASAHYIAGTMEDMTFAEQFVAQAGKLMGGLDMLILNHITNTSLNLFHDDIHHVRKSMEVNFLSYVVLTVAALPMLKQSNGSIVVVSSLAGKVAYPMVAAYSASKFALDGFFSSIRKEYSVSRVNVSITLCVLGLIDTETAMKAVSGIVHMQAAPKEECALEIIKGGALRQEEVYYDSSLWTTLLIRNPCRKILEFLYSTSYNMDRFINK

Row | IC50 [µM] | SMILES
1 | < 0.01 | CCN(Cc1ccccc1)c1nnc(C2(c3ccccc3)CC2)n1C [Ex. 2-92]
2 | 0.01 to 1 | Cn1c(N2CCC(Oc3cccc(C(N)=O)c3)CC2)nnc1C1(c2ccccc2)CC1 [Ex. 2-55]
3 | < 0.01 | Cn1c(-c2ccc(S(C)(=O)=O)cc2Cl)nnc1C1(c2ccccc2)CC1 [Ex. 1-71]
4 | < 0.01 | CONC(=O)Nc1ccc(-c2nnc(C3(c4ccc(F)cc4)CC3)n2C)c(Cl)c1 [Ex. 1-152]
5 | 0.01 to 1 | Cn1c(N2CCC(Oc3c(Cl)cncc3Cl)CC2)nnc1C1(c2ccccc2)CC1 [Ex. 2-86]
6 | < 0.01 | Cn1c(-c2ccc(N3CCC(C(=O)N4CCCCC4)CC3)cc2Cl)nnc1C1(c2ccccc2)CC1 [Ex. 1-113]
7 | 0.01 to 1 | Cn1c(N2CCC(Nc3ncc(Cl)cc3Cl)CC2)nnc1C1(c2ccccc2)CC1 [Ex. 2-33]
8 | < 0.01 | CC(C)n1c(-c2ccc(C(N)=O)cc2)nnc1C1(c2ccc(F)cc2)CC1 [Ex. 1-145]
9 | < 0.01 | Cn1c(-c2ccc(C(C)(O)C(F)(F)F)cc2Cl)nnc1C1(c2ccccc2)CC1 (stereo not drawn) [Ex. 1-102]
10 | 0.01 to 1 | Cn1c(C2(c3ccccc3)CC2)nnc1[C@H]1CC[C@H](Oc2ccc(Cl)cc2Cl)CC1 [Ex. 1-11]
11 | 0.01 to 1 | CN(C)C(=O)Nc1ccc(-c2nnc(C3(c4ccccc4)CC3)n2C)c(Cl)c1 [Ex. 1-33]
12 | < 0.01 | Cn1c(N2CCC(Oc3ccc(Cl)cc3Cl)CC2)nnc1C1(c2ccccc2)CC1 [Ex. 2-73]
13 | < 0.01 | COc1ccc(COc2ccc(-c3nnc(C4(c5ccccc5)CC4)n3C)c(Cl)c2)cc1 [Ex. 1-67]
14 | < 0.01 | COC(=O)c1ccc(-c2nnc(C3(c4ccccc4)CC3)n2C)c(Cl)c1 [Ex. 1-70]
15 | 0.01 to 1 | Cn1c(-c2ccc(N3CCC(N)CC3)cc2Cl)nnc1C1(c2ccccc2)CC1 [Ex. 1-64]
16 | < 0.01 | CCOC(=O)Nc1ccc(-c2nnc(C3(c4ccccc4)CC3)n2C)c(Cl)c1 [Ex. 1-38]
17 | < 0.01 | COc1cc(Cl)ccc1-c1nnc(C2(c3ccccc3)CC2)n1C [Ex. 1-91]
18 | < 0.01 | Cn1c(N2CCC(Oc3ccccc3Cl)CC2)nnc1C1(c2ccccc2)CC1 [Ex. 2-30]
19 | < 0.01 | Cn1c(-c2ccc(OCCO)cc2Cl)nnc1C1(c2ccccc2)CC1 [Ex. 1-119]
20 | 0.01 to 1 | COC(=O)c1ccc(OC2CCN(c3nnc(C4(c5ccccc5)CC4)n3C)CC2)cc1 [Ex. 2-47]
21 | 0.01 to 1 | Cn1c(-c2ccccn2)nnc1C1(c2ccccc2)CC1 [Ex. 1-98]

Row | IC50 [µM] | SMILES
22 | 0.01 to 1 | CNC(=O)C1CCN(c2nnc(C3(c4ccccc4)CC3)n2C)CC1 [Ex. 2-18]
23 | < 0.01 | Cn1c(N2CCC(C)(C(N)=O)CC2)nnc1C1(c2ccccc2)CC1 [Ex. 2-70]
24 | 0.01 to 1 | CC(=O)NC1CCN(c2nnc(C3(c4ccccc4)CC3)n2C)CC1 [Ex. 2-9]
25 | < 0.01 | CC(C)C(=O)Nc1ccc(-c2nnc(C3(c4ccccc4)CC3)n2C)c(Cl)c1 [Ex. 1-29]
26 | < 0.01 | Cn1c(-c2ccc(NS(N)(=O)=O)cc2Cl)nnc1C1(c2ccccc2)CC1 [Ex. 1-34]
27 | 0.01 to 1 | CC(=O)N1CCN(c2nnc(C3(c4ccccc4)CC3)n2C)CC1 [Ex. 2-27]
28 | < 0.01 | Cn1c(N2CCC(C)(C)CC2)nnc1C1(c2ccc(F)cc2)CC1 [Ex. 2-60]
29 | < 0.01 | COc1cc(C(N)=O)ccc1-c1nnc(C2(c3ccccc3)CC2)n1C [Ex. 1-125]
30 | < 0.01 | CC(C)n1c(-c2ccc(N3CCOC3=O)cc2)nnc1C1(c2ccc(F)cc2)CC1 [Ex. 1-149]
31 | 0.01 to 1 | COCCn1c(N2CCC(Oc3ncc(Cl)cc3Cl)CC2)nnc1C1(c2ccccc2)CC1 [Ex. 2-72]
32 | < 0.01 | Cn1c(C2CCN(c3ncccc3Cl)CC2)nnc1C1(c2ccccc2)CC1 [Ex. 1-14]
33 | < 0.01 | Cn1c(N2CCN(c3ccccc3Cl)CC2)nnc1C1(c2ccccc2)CC1 [Ex. 2-85]
34 | < 0.01 | CCn1c(-c2ccc(C(N)=O)cc2Cl)nnc1C1(c2ccc(F)cc2)CC1 [Ex. 1-159]
35 | 0.01 to 1 | Cn1c(N2CCC(NC(=O)OC(C)(C)C)CC2)nnc1C1(c2ccccc2)CC1 [Ex. 2-7]
36 | < 0.01 | Cn1c(N2CCC(C)(CO)CC2)nnc1C1(c2ccccc2)CC1 [Ex. 2-68]
37 | < 0.01 | Cn1c(-c2ccc([N+](=O)[O-])cc2Cl)nnc1C1(c2ccccc2)CC1 [Ex. 1-20]
38 | < 0.01 | COCC(=O)Nc1ccc(-c2nnc(C3(c4ccccc4)CC3)n2C)c(Cl)c1 [Ex. 1-24]
39 | 0.01 to 1 | COCCNC(=O)c1ccc(-c2nnc(C3(c4ccccc4)CC3)n2C)c(Cl)c1 [Ex. 1-85]
40 | < 0.01 | OCCn1c(C2CCN(c3c(Cl)cncc3Cl)CC2)nnc1C1(c2ccccc2)CC1 [Ex. 1-5]
41 | 0.01 to 1 | Cn1c(-c2ccc(N3CCC4(CC3)OCCO4)cc2Cl)nnc1C1(c2ccccc2)CC1 [Ex. 1-61]
42 | < 0.01 | Cn1c(-c2ccc(N3CCC(O)C3)cc2Cl)nnc1C1(c2ccccc2)CC1 (stereo not drawn) [Ex. 1-131]

Row | IC50 [µM] | SMILES
43 | 0.01 to 1 | CN(C)C(=O)c1cccc(OC2CCN(c3nnc(C4(c5ccccc5)CC4)n3C)CC2)c1 [Ex. 2-57]
44 | < 0.01 | Cn1c(-c2ccc(N3CCC(C(=O)NCC(F)(F)F)CC3)cc2Cl)nnc1C1(c2ccccc2)CC1 [Ex. 1-116]
45 | < 0.01 | CC(C)n1c(-c2cccc(N3CCOC3=O)c2)nnc1C1(c2ccc(F)cc2)CC1 [Ex. 1-154]
46 | < 0.01 | Cn1c(N2CCC(Oc3ccc(F)cc3)CC2)nnc1C1(c2ccccc2)CC1 [Ex. 2-51]
47 | < 0.01 | CN(c1ccccn1)c1nnc(C2(c3ccccc3)CC2)n1C [Ex. 2-95]
48 | 0.01 to 1 | COC(=O)c1ccccc1OC1CCN(c2nnc(C3(c4ccccc4)CC3)n2C)CC1 [Ex. 2-50]
49 | < 0.01 | Clc1cnc(OC2CCN(c3nnc(C4(c5ccccc5)CC4)n3C3CC3)CC2)c(Cl)c1 [Ex. 2-78]
50 | < 0.01 | Cn1c(-c2ccc(N3CCOC3=O)cc2Cl)nnc1C1(c2ccccc2)CC1 [Ex. 1-36]
51 | 0.01 to 1 | Cn1c(-c2ccc(N3CCNCC3)cc2Cl)nnc1C1(c2ccccc2)CC1 [Ex. 1-48]
52 | < 0.01 | CC(C)n1c(N2CCC(Oc3ncc(Cl)cc3Cl)CC2)nnc1C1(c2ccccc2)CC1 [Ex. 2-80]
53 | 0.01 to 1 | NCCn1c(C2CCN(c3c(Cl)cncc3Cl)CC2)nnc1C1(c2ccccc2)CC1 [Ex. 1-6]
54 | < 0.01 | CN(c1ccccc1)c1nnc(C2(c3ccc(F)cc3)CC2)n1C [Ex. 2-96]
55 | 0.01 to 1 | Cn1c(N2CCC(Oc3ncc(Cl)cc3Cl)CC2)nnc1C1(c2ccc(Cl)cc2)CC1 [Ex. 2-29]
56 | < 0.01 | Cn1c(-c2ccc(Cl)cc2Cl)nnc1C1(c2ccc(F)cc2)CCCC1 [Ex. 1-123]
57 | 0.01 to 1 | Cn1c(C2CCN(c3c(Cl)cncc3Cl)CC2)nnc1C1(c2ccc(Cl)cc2)CC1 [Ex. 1-1, 3′,5′-dichloro-4-(5-(1-(4-chlorophenyl)cyclopropyl)-4-methyl-4H-[1,2,4]triazol-3-yl)-3,4,5,6-tetrahydro-2H-[1,4′]bipyridyl hydrochloride]
58 | < 0.01 | Cn1c(-c2ccc(C(N)=O)cc2Cl)nnc1C1(c2ccccc2)CC1 [Ex. 1-73]
59 | < 0.01 | Cn1c(N2CCSCC2)nnc1C1(c2ccccc2)CC1 [Ex. 2-21]
60 | 0.01 to 1 | Cn1c(-c2ccc(C(=O)N3CCCCC3)cc2Cl)nnc1C1(c2ccccc2)CC1 [Ex. 1-80]
61 | < 0.01 | Cn1c(-c2ccc(N3CCC(C(N)=O)CC3)cc2Cl)nnc1C1(c2ccccc2)CC1 [Ex. 1-109]
62 | 0.01 to 1 | CNC(=O)CCn1c(C2CCN(c3c(Cl)cncc3Cl)CC2)nnc1C1(c2ccccc2)CC1 [Ex. 1-10]
63 | < 0.01 | COC(=O)C1CCN(c2ccc(-c3nnc(C4(c5ccccc5)CC4)n3C)c(Cl)c2)CC1 [Ex. 1-58]
